Experimental data taken from paper PMC4055595, “Pharmacokinetic Compatibility of Ginsenosides and Schisandra Lignans in Shengmai-san: From the Perspective of P-Glycoprotein” (PLoS ONE, 2014).
Read-outs that look alike come from different tables or passages of the source.

Tests used:
[1] = test system: LLC-PK1 cells (lacking P-gp); experiment: Uptake (intracellular accumulation) of digoxin and ginsenosides in LLC-PK1 cells; assay type: in vitro ADME; conditions: for Effect of verapamil on intracellular accumulation: 10 µM verapamil; for Effect of SLE on intracellular accumulation: SLE 2.0 and 10.0 µg/mL
Description: LLC-PK1 cells, a cell line lacking P-gp, and the derived cell line L-MDR1, which over-express human MDR1-encoded P-gp, were grown in minimum essential medium with supplements at 37°C, 5% CO2, and 95% humidity. LLC-PK1 and L-MDR1 cells were seeded at a density of 12×10^6 cells per 150-cm^2 flask and grown for 7 days in medium 199 supplemented with 2 mM glutamine, 10% fetal bovine serum, 10 mg/500 mL of streptomycin, and 10,000 IU/500 mL of penicillin. To ensure a constant expression level of transport protein, L-MDR1 cells were grown in the presence of 640 nM vincristine. Cells were grown as monolayer on polycarbonate membrane filters (Transwell; Costar Corporation, Cambridge, MA) as outlined previously. Transepithelial resistance was measured in each well using a Millicell ERS ohmmeter (Millipore, Bedford, MA); wells registering a resistance of 200 ohms or greater, after correcting for the resistance obtained in control blank wells, were used in the transport experiments.
(§1) LLC-PK1 and L-MDR1 cells were incubated with SLE (2.0 and 10.0 µg/mL) or verapamil (10 µM) for 1.0 h, and then were washed to discard SLE or verapamil before adding 100 µg/mL of GE. The accumulation of GE lasted for 2 h, and the intracellular concentrations of ginsenosides were measured by LC/MS. All experiments were conducted in triplicate.

[2] = Transport of digoxin and ginsenosides across Caco-2 cell monolayer (efflux ratio); assay type: in vitro ADME, human; conditions: human, pH 7.4; Caco-2 cell monolayer, absence of inhibitor, GE 100 µg/mL; read-out: Efflux ratio
Description: (§2) Caco-2 cells were purchased from American Type Culture Collection (Manassas, VA), and were routinely cultured in Dulbecco's modified Eagle's medium supplemented with 10% fetal bovine serum, 1% nonessential amino acids, 1 mM sodium pyruvate, and 100 U/mL penicillin and streptomycin (Invitrogen, Carlsbad, CA). The cells were grown in an atmosphere of 5% CO2 at 37°C, and cell medium was changed every other day. Cells were seeded at a density of 4×10^4 cells per well in 24-well microporous polycarbonate insert filter plates (0.4-µm pore size) (Corning Costar plates; Corning Life Sciences, Lowell, MA) and grown for 15 days in Caco-2 growth medium. The medium was replaced every 3 to 4 days. Before running the assay, the culture medium was replaced by HBSS buffer supplemented with 10 mM Hepes and 20 mM glucose.
Caco-2 cells with a density of 1.2×10^5 cells/insert were seeded on a permeable polycarbonate insert (Millicell cell culture inserts, 0.4 µm pore size, 12 mm diameter; Millipore Corporation) in 24-well tissue culture plates and were used for the experiment 18 to 21 days after seeding. [^14C]Mannitol permeability and transepithelial electrical resistance measurements (Millicell-ERS epithelial volt-ohm meter; Millipore Corporation) were used to evaluate the integrity of Caco-2 cell monolayer. The monolayer used in transport studies had transepithelial electrical resistance values exceeding 600 Ω·cm^2, and the leakage of mannitol was less than 0.3% of the dose/h. Before transport initiation studies, the cell monolayer was first washed with warm HBSS (pH 7.4) twice. HBSS containing SLE (2.0 and 10.0 µg/mL) or 1% ethanol (control) was then loaded into both apical and basolateral chambers. After incubation at 37°C for 1.5 h, 100 µg/mL of GE was added to either the apical or basolateral side to evaluate the transport in absorptive and secretory directions, and the cell monolayer was incubated for another 2 h. 10 µM verapamil was used as a positive control inhibitor. At the designated time point, samples were taken from the receiving chamber for analysis. Ginsenosides were determined by LC-MS. All experiments were conducted in triplicate.
For the transport assay, the apparent permeability (P app, cm/s) in each direction (A→B and B→A) was calculated as follows, where A is the surface area of the membrane inserts (0.0804 cm^2), C 0 is the initial concentration of the compound applied in the donor compartment (2 µM), and △Q is the amount (micromoles) of compound transported over time △t (5 h = 18,000 s): [drawing 1]
The efflux ratio (ER) was a dimensionless number calculated as the ratio of the apparent permeability in the B→A direction divided by the apparent permeability in the A→B direction. [drawing 2]

[3] = test system: Caco-2 cells; experiment: Uptake of digoxin and ginsenosides in Caco-2 cells; assay type: in vitro ADME, human; conditions: for Effect of verapamil on uptake: 10 µM verapamil; for Effect of SLE on intracellular concentration: SLE 2.0 and 10.0 µg/mL, P<0.01
Description: as §2
as §1, with “Caco-2” for “LLC-PK1 and L-MDR1”, “h. Then the cells” for “h, and then”, “washed with Hank's” for “washed”, “the addition” for “adding 100 µg/mL”, “GE (100 µg/mL).” for “GE.”, “ginsenosides” for “GE”

[4] = Rat plasma pharmacokinetics after 10-day vehicle/SLE and digoxin or GE; assay type: in vivo, Sprague-Dawley rats; conditions: rats; for AUC / Cmax / AUC(0-inf) / MRT inf / half-life / Cl_F_obs / Tmax / AUCINF_obs: day 11 digoxin 0.5 mg/kg or GE 120 mg/kg ig; for AUC(0-inf): read-out: AUCINF_obs; for MRT inf: read-out: MRTINF_obs; for half-life: read-out: t1/2 (converted); for Increase of AUC (AUC0-∞) by 10 continuous days administration of SLE: SLE 500 mg/kg x 10 days vs vehicle, GE ig on day 11
Description: This study was carried out in strict accordance with the recommendations in the Guide for the Care and Use of Laboratory Animals of the National Institutes of Health. The protocol was approved by the Committee on the Ethics of Animal Experiments of the China Pharmaceutical University. All surgery was performed under sodium pentobarbital anesthesia, and all efforts were made to minimize suffering. […] The rats were fed with standard laboratory food and water and fasted overnight but with free access to water before the test. To evaluate the effect of long-term treatment with SLE on the pharmacokinetics of ginsenosides, 24 rats were also divided into four groups (group I∼ group IV) with 6 animals each. […] On the 11th day, digoxin was administered intragastrically to rats (group I and group II) at a single dose of 0.5 mg/kg, GE was administered intragastrically to rats (group III and group IV) at a single dose of 120 mg/kg. […] Plasma was obtained by centrifugation at 5000 g for 10 min and stored at −20°C before analysis. The plasma / cell samples were extracted using a liquid–liquid extraction technique. To each tube containing 100 µL plasma, 10 µL internal standard (digoxin, 1.0 µg/mL) and 1.0 mL of n-butanol were added. The mixture was then vortex-extracted for 2 min, and centrifuged for 10 min at 10,000 g. […] The plasma concentration-time curves of ginsenosides in rats were obtained by plotting the mean plasma concentrations versus time. Pharmacokinetic parameters were calculated using the WinNonlin 6.3 program (Pharsight Inc., Mountain View, CA). The elimination half-life (t 1/2) value was calculated as 0.693/β, where β is the elimination rate constant calculated from the terminal linear portion of the log plasma concentration-time curve. The total areas under the plasma concentration- time curve from time 0 to the last quantifiable time point (AUC0-t) and from time 0 to infinity (AUC0-∞) were calculated using the log trapezoidal rule. [drawing 3] The maximum plasma concentrations (C max) for ginsenosides were obtained by visual inspection of the plasma concentration-time curve, whereas the initial drug concentration (the extrapolated concentration at zero time) of the drug after intravenous injection was calculated by back-extrapolation of the plasma concentration-time curve to the y-axis.

[5] = female, Sprague-Dawley, rat, plasma, po, SLE 500 mg/kg ig once a day for 10 days
[6] = female, Sprague-Dawley, rat, plasma, po, control: vehicle once a day for 10 days
[7] = SLE 500 mg/kg ig once a day for 10 days
[8] = control: vehicle once a day for 10 days

Effect of verapamil on intracellular accumulation [1] | Effect of SLE on intracellular accumulation [1] | efflux ratio at 2 h, 100 µg/mL [2] | Effect of verapamil on uptake [3] | Effect of SLE on intracellular concentration [3] | AUC [4, 5] [ng·h/mL] | Cmax [4, 5] [ng/mL] | AUC(0-inf) [4, 5] [ng·h/mL] | MRT inf [4, 5] [h] | half-life [4, 5] [h] | AUC [4, 6] [ng·h/mL] | Cmax [4, 6] [ng/mL] | AUC(0-inf) [4, 6] [ng·h/mL] | MRT inf [4, 6] [h] | half-life [4, 6] [h] | Cl_F_obs [4, 7] [L/h] | Increase of AUC (AUC0-∞) by 10 continuous days administration of SLE [4] [fold] | Compound | also measured
no significant difference | no significant difference | 4.47 | significantly enhanced | concentration dependently increase | 7640 ± 2690 | 265 ± 49.4 | 11700 ± 8560 | 26.3 ± 90.6 | 18 ± 75.9 | 6570 ± 1820 | 262 ± 104 | 7460 ± 2340 | 22.4 ± 9.98 | 20.8 ± 9.64 | 0.0125 ± 0.0084 | 1.60 | CC(C)=CCC[C@](C)(O[C@@H]1O[C@H](CO)[C@@H](O)[C@H](O)[C@H]1O)[C@H]1CC[C@]2(C)[C@@H]1[C@H](O)C[C@@H]1[C@@]3(C)CC[C@H](O[C@@H]4O[C@H](CO)[C@@H](O)[C@H](O)[C@H]4O[C@@H]4O[C@H](CO)[C@@H](O)[C@H](O)[C@H]4O)C(C)(C)[C@@H]3CC[C@]12C [Rd, ginsenoside Rd] | Tmax [4, 7]: 8.00 ± 2.45 h; Tmax [4, 8]: 8.00 ± 2.45 h
no significant difference | no significant difference | 3.77 | significantly enhanced | concentration dependently increase | 25600 ± 1300 | 736 ± 143 | 27000 ± 2380 | 33.5 ± 7.91 | 19.3 ± 8.29 | 14100 ± 5070 | 430 ± 135 | 14300 ± 5180 | 28.1 ± 4.81 | 17.2 ± 2.16 | 0.0037 ± 0.0003 | 1.82 | CC(C)=CCC[C@](C)(O[C@@H]1O[C@H](CO[C@@H]2O[C@H](CO)[C@@H](O)[C@H](O)[C@H]2O)[C@@H](O)[C@H](O)[C@H]1O)[C@H]1CC[C@]2(C)[C@@H]1[C@H](O)C[C@@H]1[C@@]3(C)CC[C@H](O[C@@H]4O[C@H](CO)[C@@H](O)[C@H](O)[C@H]4O[C@@H]4O[C@H](CO)[C@@H](O)[C@H](O)[C@H]4O)C(C)(C)[C@@H]3CC[C@]12C [Rb1, ginsenoside Rb1] | Tmax ([4]; female, Sprague-Dawley, rat, plasma, po, SLE 500 mg/kg ig once a day for 10 days, read-out: Tmax): 9.6 ± 2.19 h; Tmax ([4]; female, Sprague-Dawley, rat, plasma, po, control: vehicle once a day for 10 days, read-out: Tmax): 10 ± 4.47 h; AUCINF_obs [4, 7]: 27017 ± 2381 ng·h/mL; AUCINF_obs [4, 8]: 14324 ± 5178 ng·h/mL; Cl_F_obs [4, 8]: 0.0079 ± 0.0035 L/h
